Experiments:
[1] = pH 7.4, 25.0 °C
Procedure: The concentration of the compound was determined by UV–vis spectrophotometry. For calibration, stock solutions of the compound were used with known concentrations dissolved in 100% DMSO, 75% DMSO, and 50% (v/v) DMSO/buffered aqueous solutions.

[2] = system: S. aureus MRSA ATCC 43300; experiment: Antibacterial MIC assay, S. aureus MRSA ATCC 43300; type: cell-based, Staphylococcus aureus; details: 18 h, visual inspection
Procedure: The antibacterial effect of the complex was tested against the Gram-negative strain Escherichia coli (E. coli) ATCC 25922, the Gram-positive reference strain Staphylococcus aureus (S. aureus) ATCC 25923, and the methicillin-resistant S. aureus MRSA ATCC 43300 strain. MRSA strains are responsible for several difficult-to-treat hospital-acquired infections.
The following bacterial strains were used in our experiments: Gram-positive S. aureus American Type Culture Collection (ATCC) 25923 as the methicillin-susceptible reference bacterial strain; methicillin-resistant S. aureus ATCC 43300 (MRSA) strain; E. coli ATCC 25922 as a Gram-negative bacterial strain.
MIC values of the complexes were determined in 96-well plates based on the Clinical and Laboratory Standard Institute guidelines (CLSI guidelines). The stock solutions of the compound (dissolved in DMSO at 5 mM concentration) were diluted in 100 μL of Mueller Hinton Broth. Then, 10^–4 dilution of an overnight bacterial culture in 100 μL of medium was added to each well, with the exception of the medium control wells.

cathepsin V = target: T1, cathepsin V (Homo sapiens, UniProt O60911); experiment: Relative inhibition of cathepsin V; type: biochemical; details: 50 μM; substrate Z-Phe-Arg-AMC; pH 5.5
T1 construct: made in house; host or cells: Pichia pastoris
T1 sequence (O60911 114-334): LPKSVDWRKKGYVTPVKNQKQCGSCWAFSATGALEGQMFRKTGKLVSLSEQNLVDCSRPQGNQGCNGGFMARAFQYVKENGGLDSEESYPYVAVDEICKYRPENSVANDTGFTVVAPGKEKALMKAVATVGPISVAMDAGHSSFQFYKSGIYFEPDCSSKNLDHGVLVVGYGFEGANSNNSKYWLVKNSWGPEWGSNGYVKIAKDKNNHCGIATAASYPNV
Description: Relative inhibition is expressed as a percentage of the decrease in reaction velocity in the presence of an inhibitor, in comparison to the reaction velocity in the absence of an inhibitor. For that purpose, the specific fluorogenic substrates Z-Arg-Arg-7-amido-4-methylcoumarin (Z-Arg-Arg-AMC) and 2-aminobenzoyl (Abz)-Gly-Ile-Val-Arg-Ala-Lys-(Dnp)-OH were used for cathepsin B endopeptidase and exopeptidase activities, respectively, and Z-Phe-Arg-AMC was used for cathepsin L and V activities.
Human recombinant cathepsin B was expressed in E. coli, recombinant cathepsin V was expressed in Pichia pastoris, and human recombinant cathepsin L was expressed in E. coli, as reported. − For the determination of cathepsin B endopeptidase and exopeptidase activities, 100 mM phosphate buffer (pH 6.0) and 60 mM acetate buffer (pH 5.0) were used, respectively, and for the determination of cathepsin V and L activities, 100 mM acetate buffer (pH 5.5) was used. All buffers contained 0.1% PEG 8000 (Sigma-Aldrich, St. Louis, MO), 5 mM cysteine, and 1.5 mM EDTA. Prior to the assay, the enzymes were activated in the assay buffer for 5 min at 37 °C.
To determine the effect of inhibitors on enzyme activity, the following substrates were used: Z-Arg-Arg-AMC (final concentration 5 μM, Z-RR-AMC; Bachem, Bubendorf, Switzerland) for cathepsin B endopeptidase activity, Abz-Gly-Ile-Val-Arg-Ala-Lys-(Dnp)-OH (final concentration 1 μM, Abz-GIVRAK-(Dnp)-OH; Bachem) for cathepsin B exopeptidase activity, and Z-Phe-Arg-AMC (final concentration 2 μM, Z-FR-AMC; Bachem) for cathepsin V and L activity. The substrate ([…]) at a final concentration and inhibitor ([…]) at a concentration of 50 μM were added to the wells of a black microplate. The reaction was then initiated by adding 90 μL of activated enzyme (final concentrations: 5 nM cathepsin B for its endopeptidase activity, 0.5 nM cathepsin B for its exopeptidase activity, 2.5 ng/mL for cathepsin V, and 0.02 nM for cathepsin L) in the assay buffer. The formation of fluorescent degradation products during the reaction was continuously monitored at 460 ± 10 nm with excitation at 380 ± 20 nm for Z-Arg-Arg-AMC and Z-Phe-Arg-AMC and at 420 ± 10 nm with excitation at 320 ± 20 nm for Abz-Gly-Ile-Val-Arg-Ala-Lys(Dnp)-OH at 37 °C on a Tecan Infinite M1000 (Mannedorf, Switzerland) spectrofluorometer. All assay mixtures contained 5% (v/v) DMSO. To prevent false-positive inhibition due to the formation of compound aggregates, 0.01% Triton X-100 was used. All measurements were performed in triplicate and repeated twice. The relative inhibition was calculated using the following equation: relative inhibition (%) = 100(1 – v i/v o), where v i and v o designate the reaction velocities in the presence and absence of inhibitor, respectively.

Colo320 cells = experiment: MTT cytotoxicity assay, Colo320; type: cell-based, human; details: 72 h incubation
Procedure: Its cytotoxicity was determined in the human HeLa cervical cancer cell line, the drug-sensitive Colo205 and its resistant counterpart, the ABCB1 expressing Colo320 colon adenocarcinoma cancer cell lines, using the colorimetric 3-(4,5-dimethylthiazol-2-yl)-2,5-diphenyltetrazolium bromide (MTT) test. To investigate the selectivity toward cancer cells, the noncancerous fibroblast CCD-19Lu cell line was included.
Drug-sensitive Colo205 (ATCC-CCL-222) and ABCB1 (MDR1)-LRP expressing and doxorubicin-resistant Colo320/MDR-LRP (ATCC-CCL-220.1) human colonic adenocarcinoma cell lines were purchased from LGC Promochem (Teddington, U.K.). The cells were cultured in RPMI 1640 medium supplemented with 10% heat-inactivated fetal bovine serum, 2 mM L-glutamine, 1 mM Na-pyruvate, and 10 mM HEPES.
The tested compound was dissolved in DMSO to prepare a 5 mM stock solution, which was diluted in complete culture medium, to study the effect of compounds on cell growth of human colonic adenocarcinoma cell lines. Doxorubicin was used as the positive control. The cells were treated with a trypsin-versene (EDTA) solution. […] Cell growth was determined by measuring the optical density (OD) at 540/630 nm with a Multiscan EX ELISA reader (Thermo Labsystems, Cheshire, WA). […]

Question: Which results are given for `N#Cc1ccccc1.[C-]#[O+].[C-]#[O+].[C-]#[O+].[O-]n1ccccc1=S.[Re+]` [complex 4, fac-[Re(CO)3(pth)(benzonitrile)]]?
Answer: aqueous solubility S7.4 [1]: 350 ± 10 µM; MIC S. aureus MRSA ATCC 43300 [2]: 12.5 µM; relative inhibition cathepsin V (cathepsin V): 9.1 ± 1.0%; IC50 (Colo320 cells): 10.5 ± 0.85 µM

— article PMC12391994, “Synthesis of a fac-Tricarbonylrhenium(I) Complex with Pyrithione, Its Physicochemical Characterization, and Assessment of Biological Effects” (ACS Omega, 2025)
